Legend:
Survivin = assay: Effect on survivin expression (Table 9); assay type: cell-based
Description: (§1) The effects of various compounds having general formula (I) on survivin and TCF4 expression were characterized.

TCF4 = assay: Effect on TCF4 expression (Table 9); assay type: cell-based
Description: as §1

For `CN1CC(=O)N2[C@@H](CN(Cc3ccc(Cl)c4cccnc34)C(=O)[C@@H]2Cc2ccc(O)cc2)N1C(=O)NCc1ccccc1`, the inhibition at 5 µM (Survivin) was 86%, the inhibition at 25 µM (Survivin) was 91% and the IC50 (TCF4) was 2.6 ± 0.6 µM.
Compound `CN1CC(=O)N2[C@@H](Cc3ccc(O)cc3)C(=O)N(Cc3cccc4ccccc34)C[C@@]2(C)N1C(=O)NCc1ccccc1` has an inhibition at 5 µM (Survivin) of 100%, an inhibition at 25 µM (Survivin) of 99% and an IC50 (TCF4) of about 2 µM.
Compound `CC(C)N(C)c1ccccc1CN1C[C@@H]2N(C(=O)CN(C)N2C(=O)NCc2ccccc2)[C@@H](Cc2ccc(O)cc2)C1=O` has an inhibition at 5 µM (Survivin) of 27%, an inhibition at 25 µM (Survivin) of 98% and an IC50 (TCF4) of 10.7 ± 1.7 µM.
With `Cc1cccc(CN2C[C@@H]3N(C(=O)CN(C)N3C(=O)NCc3ccccc3)[C@@H](Cc3ccc(O)cc3)C2=O)c1N(C)C` the inhibition at 5 µM (Survivin) was 0%, the inhibition at 25 µM (Survivin) was 68% and the IC50 (TCF4) was 10.9 ± 1.3 µM.
Compound `CN(C)c1cc(CN2C[C@@H]3N(C(=O)CN(C)N3C(=O)NCc3ccccc3)[C@@H](Cc3ccc(O)cc3)C2=O)ccc1Cl` has an inhibition at 5 µM (Survivin) of 0%, an inhibition at 25 µM (Survivin) of 92% and an IC50 (TCF4) of 7.3 ± 0.6 µM.
Compound `Cc1c(CN2C[C@@H]3N(C(=O)CN(C)N3C(=O)NCc3ccccc3)[C@@H](Cc3ccc(O)cc3)C2=O)cccc1N(C)C` has an inhibition at 5 µM (Survivin) of 48%, an inhibition at 25 µM (Survivin) of 96% and an IC50 (TCF4) of 3.9 ± 0.55 µM.
Work on `CN(C)c1cc(F)c(F)cc1CN1C[C@@H]2N(C(=O)CN(C)N2C(=O)NCc2ccccc2)[C@@H](Cc2ccc(O)cc2)C1=O` yielded an inhibition at 5 µM (Survivin) of 9%, an inhibition at 25 µM (Survivin) of 91% and an IC50 (TCF4) of 1.4 ± 0.2 µM.
`CN1CC(=O)N2[C@@H](CN(Cc3cccc4cn[nH]c34)C(=O)[C@@H]2Cc2ccc(O)cc2)N1C(=O)NCc1ccccc1` was tested, and the inhibition at 5 µM (Survivin) was 80%, the inhibition at 25 µM (Survivin) was 97% and the IC50 (TCF4) was 4.6 ± 0.7 µM.
`Cc1ccc(N(C)C(C)C)c(CN2C[C@@H]3N(C(=O)CN(C)N3C(=O)NCc3ccccc3)[C@@H](Cc3ccc(O)cc3)C2=O)c1` was tested, and the inhibition at 5 µM (Survivin) was 14%, the inhibition at 25 µM (Survivin) was 99% and the IC50 (TCF4) was 10.7 ± 1.9 µM.
`CN1CC(=O)N2C(Cc3ccc(O)cc3)C(=O)N(Cc3cccc4cccnc34)CC2N1C(=O)NCc1ccccc1` (centres unmarked) showed an inhibition at 5 µM (Survivin) of 97%, an inhibition at 25 µM (Survivin) of 100% and an IC50 (TCF4) of about 2.2 µM.
`Cc1cc(C)c(N(C)C)c(CN2C[C@@H]3N(C(=O)CN(C)N3C(=O)NCc3ccccc3)[C@@H](Cc3ccc(O)cc3)C2=O)c1` was tested, and the inhibition at 5 µM (Survivin) was 0%, the inhibition at 25 µM (Survivin) was 84% and the IC50 (TCF4) was 4.8 ± 0.4 µM.
`COc1cccc(CN2C[C@@H]3N(C(=O)CN(C)N3C(=O)NCc3ccccc3)[C@@H](Cc3ccc(O)cc3)C2=O)c1N(C)C` gave an inhibition at 5 µM (Survivin) of 9%, an inhibition at 25 µM (Survivin) of 92% and an IC50 (TCF4) of 5.9 ± 0.5 µM.
With `CC(C)N(C)c1cccc(CN2C[C@@H]3N(C(=O)CN(C)N3C(=O)NCc3ccccc3)[C@@H](Cc3ccc(O)cc3)C2=O)c1` the inhibition at 5 µM (Survivin) was 5%, the inhibition at 25 µM (Survivin) was 91% and the IC50 (TCF4) was 6.3 ± 0.431 µM.
In the case of `CN(C)c1ccc(Cl)cc1CN1C[C@@H]2N(C(=O)CN(C)N2C(=O)NCc2ccccc2)[C@@H](Cc2ccc(O)cc2)C1=O`, the inhibition at 5 µM (Survivin) is reported as 0%, the inhibition at 25 µM (Survivin) is reported as 93% and the IC50 (TCF4) is reported as 2.2 ± 0.2 µM.
Compound `CN1CC(=O)N2C(Cc3ccc(O)cc3)C(=O)N(Cc3ccc(F)cc3F)CC2N1C(=O)NCc1ccccc1` (centres unmarked) has an inhibition at 5 µM (Survivin) of 51%, an inhibition at 25 µM (Survivin) of 93% and an IC50 (TCF4) of about 6.3 µM.
`CN1CC(=O)N2[C@@H](CN(Cc3ccc(F)cc3C(F)(F)F)C(=O)[C@@H]2Cc2ccc(O)cc2)N1C(=O)NCc1ccccc1` was tested, and the inhibition at 5 µM (Survivin) was 0%, the inhibition at 25 µM (Survivin) was 80% and the IC50 (TCF4) was 1.3 ± 0.1 µM.
With `CC(C)N(C)c1ccc(Cl)c(CN2C[C@@H]3N(C(=O)CN(C)N3C(=O)NCc3ccccc3)[C@@H](Cc3ccc(O)cc3)C2=O)c1` the inhibition at 5 µM (Survivin) was 25%, the inhibition at 25 µM (Survivin) was 44% and the IC50 (TCF4) was 27.1 ± 4.6 µM.
For `CN(C)c1c(CN2C[C@@H]3N(C(=O)CN(C)N3C(=O)NCc3ccccc3)[C@@H](Cc3ccc(O)cc3)C2=O)cccc1C(F)(F)F`, the inhibition at 5 µM (Survivin) was 0%, the inhibition at 25 µM (Survivin) was 91% and the IC50 (TCF4) was 5.2 ± 1.1 µM.
For `Cc1ccc(N(C)C)c(CN2C[C@@H]3N(C(=O)CN(C)N3C(=O)NCc3ccccc3)[C@@H](Cc3ccc(O)cc3)C2=O)c1`, the inhibition at 5 µM (Survivin) was 0%, the inhibition at 25 µM (Survivin) was 94% and the IC50 (TCF4) was 2.6 ± 0.4 µM.
Work on `CCN(CC)c1cccc(CN2C[C@@H]3N(C(=O)CN(C)N3C(=O)NCc3ccccc3)[C@@H](Cc3ccc(O)cc3)C2=O)c1` yielded an inhibition at 5 µM (Survivin) of 0%, an inhibition at 25 µM (Survivin) of 77% and an IC50 (TCF4) of 3.5 ± 0.3 µM.
With `CN(C)c1cccc(F)c1CN1C[C@@H]2N(C(=O)CN(C)N2C(=O)NCc2ccccc2)[C@@H](Cc2ccc(O)cc2)C1=O` the inhibition at 5 µM (Survivin) was 0%, the inhibition at 25 µM (Survivin) was 6% and the IC50 (TCF4) was 18.2 ± 2.4 µM.
For `CN(C)c1ccccc1CN1C[C@@H]2N(C(=O)CN(C)N2C(=O)NCc2ccccc2)[C@@H](Cc2ccc(O)cc2)C1=O`, the inhibition at 5 µM (Survivin) was 41%, the inhibition at 25 µM (Survivin) was 92% and the IC50 (TCF4) was 5.2 ± 0.7 µM.
For `Cc1cccc(N(C)C)c1CN1C[C@@H]2N(C(=O)CN(C)N2C(=O)NCc2ccccc2)[C@@H](Cc2ccc(O)cc2)C1=O`, the inhibition at 5 µM (Survivin) was 8% and the inhibition at 25 µM (Survivin) was 4%.
`CN1CC(=O)N2[C@@H](CN(Cc3cccc4cnn(C)c34)C(=O)[C@@H]2Cc2ccc(O)cc2)N1C(=O)NCc1ccccc1` showed an inhibition at 5 µM (Survivin) of 82%, an inhibition at 25 µM (Survivin) of 97% and an IC50 (TCF4) of 2.8 ± 0.4 µM.
For `CN1CC(=O)N2[C@@H](Cc3ccc(O)cc3)C(=O)N(Cc3c(Cl)cc(Cl)c4cccnc34)C[C@@]2(C)N1C(=O)NCc1ccccc1`, the inhibition at 5 µM (Survivin) was 6%, the inhibition at 25 µM (Survivin) was 58% and the IC50 (TCF4) was 11.2 ± 1.5 µM.
Work on `CCN(C)c1cccc(CN2C[C@@H]3N(C(=O)CN(C)N3C(=O)NCc3ccccc3)[C@@H](Cc3ccc(O)cc3)C2=O)c1` yielded an inhibition at 5 µM (Survivin) of 46%, an inhibition at 25 µM (Survivin) of 96% and an IC50 (TCF4) of 4.4 ± 0.6 µM.
`CN1CC(=O)N2[C@@H](CN(Cc3c(Cl)ccc4cccnc34)C(=O)[C@@H]2Cc2ccc(O)cc2)N1C(=O)NCc1ccccc1` was tested, and the inhibition at 5 µM (Survivin) was 0%, the inhibition at 25 µM (Survivin) was 32% and the IC50 (TCF4) was 50.4 ± 7 µM.
Compound `CN(C)c1c(Cl)cccc1CN1C[C@@H]2N(C(=O)CN(C)N2C(=O)NCc2ccccc2)[C@@H](Cc2ccc(O)cc2)C1=O` has an inhibition at 5 µM (Survivin) of 0%, an inhibition at 25 µM (Survivin) of 21% and an IC50 (TCF4) of 7.3 ± 1.1 µM.
`CN(C)c1cc(F)ccc1CN1C[C@@H]2N(C(=O)CN(C)N2C(=O)NCc2ccccc2)[C@@H](Cc2ccc(O)cc2)C1=O` gave an inhibition at 5 µM (Survivin) of 79%, an inhibition at 25 µM (Survivin) of 81% and an IC50 (TCF4) of 1.7 ± 0.2 µM.
Work on `CN1CC(=O)N2[C@@H](CN(Cc3cccc4c3ncn4C)C(=O)[C@@H]2Cc2ccc(O)cc2)N1C(=O)NCc1ccccc1` yielded an inhibition at 5 µM (Survivin) of 45%, an inhibition at 25 µM (Survivin) of 88% and an IC50 (TCF4) of 13.2 ± 4.1 µM.
`CN(C)c1cc(Cl)ccc1CN1C[C@@H]2N(C(=O)CN(C)N2C(=O)NCc2ccccc2)[C@@H](Cc2ccc(O)cc2)C1=O` gave an inhibition at 5 µM (Survivin) of 6%, an inhibition at 25 µM (Survivin) of 89% and an IC50 (TCF4) of 13.9 ± 2.3 µM.
